Patent US20230407243A1, “GENETIC PLATFORM TO INVESTIGATE THE FUNCTIONS OF BACTERIAL DRUG EFFLUX PUMPS” (priority 2022, published 2023)
Like-named read-outs stand apart in the source and are kept apart here.

Key:
Assay type in all cases: cell-based, Escherichia coli
EKO-35-Pore = test: MIC susceptibility profiling, porinated strain; details: for MIC: Escherichia coli, technical duplicate
How it was run: (§1)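 E. coli strains carrying a genomically integrated constitutive fhuA ΔC/Δ4L pore were grown 18 h in LB at 37 °C, then diluted 1/2000 in MHB II from OD600 ~1.0. Compounds were tested in duplicate, 2-fold serial titration, for 18 h at 37 °C with shaking. MIC came from OD600 with the pre-incubation background subtracted.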

ΔtolC-Pore = test: microbe, parasite or virus in culture; details: for MIC: Escherichia coli, 18 h, read-out: Minimum inhibitory concentration, ΔtolC-Pore; for Minimum inhibitory concentration (MIC), Pore ΔtolC: Table 10, with pore, technical duplicate
How it was run: as §1

wild-type (WT) K-12-Pore = test: microbe, parasite or virus in culture; details: Escherichia coli, technical duplicate
How it was run: as §1

EKO-35 araC::acrEF = test: MIC susceptibility profiling, efflux platform; details: for MIC: Escherichia coli, Table 13A, non-porinated, technical duplicate, read-out: Minimum Inhibitory Concentration, EKO-35 araC::acrEF
How it was run: (§2)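 MHB II broth microdilution; inoculum from 18 h LB culture, PBS-adjusted to OD600 ~1.0, then 1/2000 dilution. Compounds 2-fold titrated, duplicates, DMSO solvent control. 18 h, 37 °C, 900 rpm; background-corrected OD600 end point.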

EKO-35 araC::mdtBC = test: MIC susceptibility profiling, efflux platform; details: for MIC: Escherichia coli, Table 13B, non-porinated, technical duplicate, read-out: Minimum Inhibitory Concentration, EKO-35 araC::mdtBC
How it was run: as §2

EKO-35 araC::acrD = test: MIC susceptibility profiling, efflux platform; details: for MIC: Escherichia coli, Table 13A, non-porinated, technical duplicate, read-out: Minimum Inhibitory Concentration, EKO-35 araC::acrD
How it was run: as §2

EKO-35 araC::emrAB = test: MIC susceptibility profiling, efflux platform; details: for MIC: Escherichia coli, Table 13B, non-porinated, technical duplicate, read-out: Minimum Inhibitory Concentration, EKO-35 araC::emrAB
How it was run: as §2

EKO-35 araC::macAB = test: MIC susceptibility profiling, efflux platform; details: for MIC: Escherichia coli, Table 13B, non-porinated, technical duplicate, read-out: Minimum Inhibitory Concentration, EKO-35 araC::macAB
How it was run: as §2

EKO-35 araC::emrKY = test: MIC susceptibility profiling, efflux platform; details: for MIC: Escherichia coli, Table 13B, non-porinated, technical duplicate, read-out: Minimum Inhibitory Concentration, EKO-35 araC::emrKY
How it was run: as §2

EKO-35 araC::mdtEF = test: MIC susceptibility profiling, efflux platform; details: for MIC: Escherichia coli, Table 13A, non-porinated, technical duplicate, read-out: Minimum Inhibitory Concentration, EKO-35 araC::mdtEF
How it was run: as §2

[1] = test system: EKO-35 araC::mexCD (MexCD from P. aeruginosa); test: MIC susceptibility profiling, efflux platform; details: for MIC: Table 13B, non-porinated, technical duplicate, read-out: Minimum Inhibitory Concentration, EKO-35 araC::mexCD
How it was run: as §2

EKO-35 araC::acrB = test: MIC susceptibility profiling, efflux platform
How it was run: as §2

EKO-35 araC::acrBD408A = test: MIC susceptibility profiling, efflux platform; details: for MIC: Escherichia coli, Table 13B, non-porinated, technical duplicate, read-out: Minimum Inhibitory Concentration, EKO-35 araC::acrBD408A
How it was run: as §2

EKO-35 araC::emrAB Pore = test: MIC susceptibility profiling, porinated efflux platform; details: for MIC: Escherichia coli, EKO-35 araC::emrAB Pore, technical duplicate, read-out: Minimum inhibitory concentration
How it was run: as §1

[2] = test system: EKO-35 araC::acrBD408A Pore; test: as above; details: for MIC: Escherichia coli, EKO-35 araC::acrBD408A Pore, technical duplicate, read-out: Minimum inhibitory concentration
How it was run: as §1

EKO-35 araC::acrB Pore = test: as above; details: for MIC: Escherichia coli, Table 14A, porinated, technical duplicate, read-out: Minimum inhibitory concentration, EKO-35 araC::acrB Pore
How it was run: as §1

EKO-35 araC::acrEF Pore = test: as above; details: for MIC: Escherichia coli, Table 14A, porinated, technical duplicate, read-out: Minimum inhibitory concentration, EKO-35 araC::acrEF Pore
How it was run: as §1

EKO-35 araC::acrD Pore = test: as above; details: for MIC: Escherichia coli, Table 14A, porinated, technical duplicate, read-out: Minimum inhibitory concentration, EKO-35 araC::acrD Pore
How it was run: as §1

[3] = Table 10, with pore, read-out: Minimum inhibitory concentration (MIC), Pore EKO-35
[4] = Table 14A, porinated, read-out: Minimum inhibitory concentration, EKO-35-Pore
[5] = Table 10, with pore, read-out: Minimum inhibitory concentration (MIC), Pore K-12
[6] = Table 14A, porinated, read-out: Minimum inhibitory concentration, K-12 (WT)-Pore

| Structure (SMILES) | MIC (EKO-35-Pore; [3]) [µg/mL] | MIC (EKO-35-Pore; [4]) [µg/mL] | MIC (ΔtolC-Pore) [µg/mL] | Minimum inhibitory concentration (MIC), Pore ΔtolC (ΔtolC-Pore) [µg/mL] | MIC (wild-type (WT) K-12-Pore; [5]) [µg/mL] | MIC (wild-type (WT) K-12-Pore; [6]) [µg/mL] | MIC (EKO-35 araC::acrEF) [µg/mL] | MIC (EKO-35 araC::mdtBC) [µg/mL] | MIC (EKO-35 araC::acrD) [µg/mL] | MIC (EKO-35 araC::emrAB) [µg/mL] | MIC (EKO-35 araC::macAB) [µg/mL] | MIC (EKO-35 araC::emrKY) [µg/mL] | MIC (EKO-35 araC::mdtEF) [µg/mL] | MIC [1] [µg/mL] | MIC (EKO-35 araC::acrBD408A) [µg/mL] | MIC (EKO-35 araC::emrAB Pore) [µg/mL] | MIC [2] [µg/mL] | MIC (EKO-35 araC::acrB Pore) [µg/mL] | MIC (EKO-35 araC::acrEF Pore) [µg/mL] | MIC (EKO-35 araC::acrD Pore) [µg/mL] | also measured |
| --- | --- | --- | --- | --- | --- | --- | --- | --- | --- | --- | --- | --- | --- | --- | --- | --- | --- | --- | --- | --- | --- |
| CN(C)[C@@H]1C(O)=C(C(N)=O)C(=O)[C@@]2(O)C(O)=C3C(=O)c4c(O)cccc4[C@@](C)(O)[C@H]3C[C@@H]12 [tetracycline] | 0.195 | 0.195 | 0.391 | 0.391 | 0.781 | 0.781 | 0.195 | 0.195 | 0.195 | 0.195 | 0.195 | 0.195 | 0.195 | 0.195 | 0.195 | 0.195 | 0.195 | 0.391 | 0.195 | 0.195 | Fold changes of MICs (EKO-35-Pore; EKO-35-Pore compared to EKO-35-Pore (reference)): 1 fold; Fold change of MICs (EKO-35 araC::acrEF; EKO-35 araC::acrEF compared to EKO-35): 1 fold; Fold change of MICs (EKO-35 araC::mdtBC; EKO-35 araC::mdtBC compared to EKO-35): 1 fold; Fold change of MICs (EKO-35 araC::acrD; EKO-35 araC::acrD compared to EKO-35): 1 fold; Fold change of MICs (EKO-35 araC::emrAB; EKO-35 araC::emrAB compared to EKO-35): 1 fold; Fold change of MICs (EKO-35 araC::macAB; EKO-35 araC::macAB compared to EKO-35): 1 fold; Fold change of MICs (EKO-35 araC::emrKY; EKO-35 araC::emrKY compared to EKO-35): 1 fold; Fold change of MICs (EKO-35 araC::mdtEF; EKO-35 araC::mdtEF compared to EKO-35): 1 fold; Fold change of MICs ([1]; EKO-35 araC::mexCD compared to EKO-35): 1 fold; Fold change of MICs (EKO-35 araC::acrB; EKO-35 araC::acrB compared to EKO-35): 4 fold; Fold change of MICs (EKO-35 araC::acrBD408A; EKO-35 araC::acrBD408A compared to EKO-35): 1 fold; Fold changes of MICs (EKO-35 araC::emrAB Pore; EKO-35 araC::emrAB Pore compared to EKO-35-Pore): 1 fold; Fold changes of MICs ([2]; EKO-35 araC::acrBD408A Pore compared to EKO-35-Pore): 1 fold; Fold changes of MICs (EKO-35 araC::acrB Pore; EKO-35 araC::acr-B Pore compared to EKO-35-Pore): 2 fold; Fold changes of MICs (EKO-35 araC::acrEF Pore; EKO-35 araC::acrEF Pore compared to EKO-35-Pore): 1 fold; Fold changes of MICs (EKO-35 araC::acrD Pore; EKO-35 araC::acrD Pore compared to EKO-35-Pore): 1 fold |
| Cc1onc(-c2ccccc2)c1C(=O)N[C@@H]1C(=O)N2[C@@H]1SC(C)(C)[C@@H]2C(=O)O [oxacillin] | 0.313 | 0.313 | 0.313 | 0.313 | 40 | 40 | 160 | 0.625 | 160 | 1.25 | 0.625 | 0.625 | 20 | 20 | 1.25 | 0.313 | 0.156 | 20 | 5 | 20 | efflux pump-mediated resistance vs EKO-35 (EKO-35 araC::acrD; AcrD): confirmed; MIC (EKO-35 araC::acrB; Escherichia coli, Table 13A, non-porinated, technical duplicate, read-out: Minimum Inhibitory Concentration, EKO-35 araC::acrB): 160 µg/mL |
